Source: patent US5081131A, “Omega-((hetero)alkyl)benz(cd)-indol-2-amines” (American Cyanamid Company, priority 1988, dated 1992)
Structures can show the parent of a compound that is named as a salt.

target: T1, thromboxane synthetase enzyme (Rattus norvegicus, UniProt P49430); assay: Thromboxane synthetase enzyme inhibition (TXB2 formation in washed platelets, RIA); type: cell-based, spontaneously hypertensive rat; conditions: 1×10^-4 Molar; SHR platelets, 10 min at 37° C.
T1 construct: endogenous in cells; host or cells: washed platelets from arterial blood of male Okamoto-Aoki spontaneously hypertensive rats (animals from Taconic Farms, Germantown, N.Y.)
T1 sequence (P49430 1-533): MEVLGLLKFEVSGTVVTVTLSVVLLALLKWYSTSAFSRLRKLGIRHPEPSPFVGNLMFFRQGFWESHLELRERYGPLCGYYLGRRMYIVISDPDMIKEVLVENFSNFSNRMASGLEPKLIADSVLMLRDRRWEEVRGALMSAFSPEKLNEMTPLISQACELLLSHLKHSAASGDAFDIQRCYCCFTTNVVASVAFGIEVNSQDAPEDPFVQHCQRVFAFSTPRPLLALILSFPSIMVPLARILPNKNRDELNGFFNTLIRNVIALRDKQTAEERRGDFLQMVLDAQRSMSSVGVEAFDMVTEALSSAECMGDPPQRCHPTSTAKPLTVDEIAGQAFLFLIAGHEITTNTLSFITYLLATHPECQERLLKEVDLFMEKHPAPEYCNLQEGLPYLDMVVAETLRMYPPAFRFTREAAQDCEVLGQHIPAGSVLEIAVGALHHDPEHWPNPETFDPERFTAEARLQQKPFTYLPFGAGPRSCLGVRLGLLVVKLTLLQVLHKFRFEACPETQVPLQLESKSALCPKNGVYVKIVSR
Procedure: The blood was diluted with 3 ml cold saline and centrifuged at room temperature for 15 min at 468×g. The platelet rich plasma (PRP) was separated. The platelets were isolated by certrifuging the PRP for 10 minutes at 1060×g and washed in 4 ml cold oxygenated Krebs phosphate buffer, pH 7.4. The chilled platelets recovered from centrifuging at 800×g for 10 minutes were resuspended in oxygenated Krebs phosphate buffer and diluted to contain 4.0-6.0×10^4 platelets/micro-liters. The inhibition of TX formation was studied by determining the concentration of thromboxane B2 (TXB2), the stable hydrolysis product of TXA2. Assay samples prepared on ice, contained 200 micro-liters platelet suspension, 50 micro-liters saline, and 50 micro-liters […] (saline) or drug under study. The test drug (0.003 mole) was dissolved in 5 ml of saline. […] The assay samples were incubated for 10 minutes at 37° C. in a metabolic shaker at about 60 rpm. The reaction was terminated by immersing the tubes in an ice bath and adding 50 micro-liters of 0.5M citric acid. The samples were centrifuged for 10 minutes at 2000 rpm at 4° C., and the supernatants were decanted.

Row | Compound | % Inhibition (Thromboxane Synthetase Enzyme Inhibition)
1 | c1cc2c3c(cccc3c1)C(NCCCCn1ccnc1)=N2 [N-(4-(1H-imidazol-1-yl)butyl)benz(cd)indol-2-amine, hydriodi] [N-(4-(1H-imidazol-1-yl)butyl)benz(cd)indol-2-amine, hydriodide] | 100%
2 | CC(CCCNC1=Nc2cccc3cccc1c23)n1ccnc1.O=C(O)/C=C/C(=O)O.O=C(O)/C=C/C(=O)O (centres unmarked) [N-(4-(1H-imidazol-1-yl)pentyl)benz(cd)indol-2-amine, bis-fumarate] | 99%
3 | c1cc2c3c(cccc3c1)C(NCCCCn1ccnc1)=N2 [N-(4-(1H-imidazol-1-yl)butyl)benz(cd)indol-2-amine sesquibut] [N-(4-(1H-imidazol-1-yl)butyl)benz(cd)indol-2-amine sesquibutanedioic acid salt] | 98%

same assay, conditions: 1×10^-4 Molar; SHR platelets, 10 min at 37° C.; read-out: % Inhibition (Thromboxane Synthetase Enzyme Inhibition)

Row | Compound | inhibition at 100 µM
4 | Clc1ccc2c3c(cccc13)C(NCCCCCn1ccnc1)=N2 [6-Chloro-N-(5-(1H-imidazol-1-yl)pentyl)benz(cd)indol-2-amine] | 100%
5 | Clc1ccc(C(Cn2ccnc2)NC2=Nc3cccc4cccc2c34)cc1 (centres unmarked) [N-(1-(4-chlorophenyl)-2-(1H-imidazol-1-yl)ethyl)benz(cd)indol-2-amine, fumarate] | 35%
6 | c1ccc(CNC2=Nc3cccc4cccc2c34)nc1 [N-(2-Pyridinylmethyl)benz(cd)indol-2-amine, fumarate] | 95%
7 | Cn1cccc1CCNC1=Nc2cccc3cccc1c23 [N-(2-(1-Methyl-1H-pyrrol-2-yl)ethyl)benz(cd)indol-2-amine, fumarate] | 90%
8 | Brc1ccc2c3c(cccc13)C(NCCCCCCCCCCn1ccnc1)=N2 [6-Bromo-N-(10-(1H-imidazol-1-yl)decyl)benz(cd)indol-2-amine] | 94%
9 | N#CCCN(Cc1ccccn1)C1=Nc2cccc3cccc1c23 [N-(2-Cyanoethyl)-N-(2-pyridinylmethyl)benz(cd)indol-2-amine, dihydrochloride] | 97%

More lines, now with the values ahead:

Row | inhibition at 100 µM | Compound
10 | 88% | OC(CNC1=Nc2cccc3cccc1c23)Cn1ccnc1 (centres unmarked) [N-(3-(1H-imidazol-1-yl)-2-hydroxypropyl)benz(cd)indol-2-amine]
11 | 96% | O=C(c1ccc(Cl)cc1)N(CCCCn1ccnc1)C1=Nc2cccc3cccc1c23 [N-Benz(cd)indol-2-yl-4-chloro-N-(4-(1-imidazol-1-yl)butylbenzamide]
12 | 89% | CN(CCc1ccccn1)C1=Nc2cccc3cccc1c23 [N-Methyl-N-(2-(2-pyridinyl)ethyl)benz(cd)indol-2-amine fumarate]
13 | 95% | CCC(=O)N(CCC(C)n1ccnc1)C1=Nc2cccc3cccc1c23 (centres unmarked) [N-Benz(cd)indol-2-yl-N-(3-(1H-imidazol-1-yl)butyl)propionamide]
14 | 82% | Cc1nccn1CCCNC1=Nc2cccc3cccc1c23 [N-(3-(2-Methyl-1H-imidazol-1-yl)propyl)benz(cd)indol-2-amine, monohydriodide]
15 | 92% | c1cc2c3c(cccc3c1)C(NCCCn1ccnc1)=N2 [N-(3-(1H-imidazol-1-yl)propyl)benz(cd)indol-2-amine, fumarate]
16 | 77% | O=C(c1ccccc1)N(CCCn1cncn1)C1=Nc2cccc3cccc1c23 [N-Benz(cd)indol-2-yl-N-(3-(1H-1,2,4-triazol-1-yl)propyl)benzamide]
17 | 73% | c1ccc(-n2ncc(CNC3=Nc4cccc5cccc3c45)n2)cc1 [N-((2-Phenyl-2H-1,2,3-triazol-2-yl)methyl)benz(cd)indol-2-amine fumarate]
18 | 100% | c1ccc(-c2nccn2CCCNC2=Nc3cccc4cccc2c34)cc1 [N-(3-(2-Phenyl-1H-imidazol-1-yl)propyl)benz(cd)indol-2-amine, hydriodide]
19 | 68% | c1cncc(CNC2=Nc3cccc4cccc2c34)c1 [N-(3-Pyridinylmethyl)benz(cd)indol-2-amine, fumarate]

same assay, conditions: read-out: % Inhibition (Thromboxane Synthetase Enzyme Inhibition), 1×10^-4 Molar; SHR platelets, 10 min at 37° C.

Row | Compound | inhibition at 100 µM
20 | c1cc2c3c(cccc3c1)C(NCCCCn1ccnc1)=N2 [N-(4-(1H-imidazol-1-yl)butyl)benz(cd)indol-2-amine monobutanedioic acid salt] | 93%
